This is an account of results in ChEMBL document CHEMBL1151687, “Search for alpha-helical propensity in the receptor-bound conformation of glucagon-like peptide-1” (Bioorg Med Chem, 2008).

Assay [1] deals with T1, Glucagon-like peptide 1 receptor (Homo sapiens, UniProt P43220). Nature of the assay: Activation of human GLP1R expressed in HEK293 cells assessed as effect on cAMP responsive element promoter driven luciferase expression. Format: functional, cell-based.
Assay [2] addresses T1, Glucagon-like peptide 1 receptor. Nature of the assay: Displacement of [125I]exendin(9-39) from human GLP1R expressed in HEK293 cells. It is filed as cell-based.

Each structure is given as a SMILES string. pEC50, pIC50: −log10 of the molar value. Positions of bridges follow the written chain, without caps; N, C: chain ends. Residues, ends and D or L forms follow the SMILES beside them.

T1 sequence (P43220 whole entry): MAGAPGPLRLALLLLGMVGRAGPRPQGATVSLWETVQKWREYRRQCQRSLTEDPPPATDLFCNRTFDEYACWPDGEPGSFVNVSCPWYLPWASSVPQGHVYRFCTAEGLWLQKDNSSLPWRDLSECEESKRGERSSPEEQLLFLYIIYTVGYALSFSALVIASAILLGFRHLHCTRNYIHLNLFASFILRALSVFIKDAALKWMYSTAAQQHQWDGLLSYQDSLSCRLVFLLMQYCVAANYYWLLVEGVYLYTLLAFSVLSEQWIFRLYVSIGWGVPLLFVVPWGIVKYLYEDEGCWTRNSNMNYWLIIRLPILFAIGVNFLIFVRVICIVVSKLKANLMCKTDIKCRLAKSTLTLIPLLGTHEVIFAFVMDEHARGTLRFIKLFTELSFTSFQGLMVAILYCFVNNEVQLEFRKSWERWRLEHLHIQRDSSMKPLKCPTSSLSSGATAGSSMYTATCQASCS

The term pEC50 denotes the negative decadic logarithm of the EC50, by convention in mol/L. The term pIC50 denotes the IC50 on a negative log10 scale, so that one unit is a factor of ten. Low values mean a high IC50, high ones a low IC50. As for `CC[C@H](C)[C@H](NC(=O)[C@H](Cc1ccccc1)NC(=O)[C@H](CCC(=O)O)NC(=O)[C@H](CCCCN)NC(=O)[C@H](C)NC(=O)[C@H](C)NC(=O)[C@H](CCC(N)=O)NC(=O)CNC(=O)[C@H](CCC(=O)O)NC(=O)[C@@H]1CCC(=O)NCCCC[C@H](NC(=O)[C@H](CC(=O)O)NC(=O)[C@H](CO)NC(=O)[C@@H](NC(=O)[C@H](Cc2ccccc2)NC(=O)[C@@H](NC(=O)CNC(=O)[C@H](CCC(=O)O)NC(=O)[C@H](C)NC(=O)[C@@H](N)Cc2cnc[nH]2)[C@@H](C)O)[C@@H](C)O)C(=O)N[C@@H](CO)C(=O)N[C@@H](CO)C(=O)N[C@@H](Cc2ccc(O)cc2)C(=O)N1)C(=O)N[C@@H](C)C(=O)N[C@@H](Cc1c[nH]c2ccccc12)C(=O)N[C@@H](CC(C)C)C(=O)N[C@H](C(=O)N[C@@H](CCCCN)C(=O)NCC(=O)N[C@@H](CCCNC(=N)N)C(N)=O)C(C)C` (H-HAEGTFTSDKSSYEEGQAAKEFIAWLVKGR-NH2; lactam 10-14), in assay [1], the pEC50 is 11.12. For the same molecule, in assay [2], the pIC50 was 8.35. Consider `CC[C@H](C)[C@H](NC(=O)[C@H](CCC(=O)O)NC(=O)[C@H](CCCCN)NC(=O)[C@H](C)NC(=O)[C@H](C)NC(=O)[C@H](CCC(N)=O)NC(=O)CNC(=O)[C@H](CCC(=O)O)NC(=O)[C@H](CS)NC(=O)[C@H](Cc1ccc(O)cc1)NC(=O)[C@H](CO)NC(=O)[C@H](CO)NC(=O)[C@H](CS)NC(=O)[C@H](CC(=O)O)NC(=O)[C@H](CO)NC(=O)[C@@H](NC(=O)[C@H](Cc1ccccc1)NC(=O)[C@@H](NC(=O)CNC(=O)[C@H](CCC(=O)O)NC(=O)[C@H](C)NC(=O)[C@@H](N)Cc1cnc[nH]1)[C@@H](C)O)[C@@H](C)O)C(=O)N[C@@H](Cc1ccccc1)C(=O)N[C@@H](C)C(=O)N[C@@H](Cc1c[nH]c2ccccc12)C(=O)N[C@@H](CC(C)C)C(=O)N[C@H](C(=O)N[C@@H](CCCCN)C(=O)NCC(=O)N[C@@H](CCCNC(=N)N)C(N)=O)C(C)C` (H-HAEGTFTSDCSSYCEGQAAKEIFAWLVKGR-NH2), for which the pEC50 in assay [1] is 8.85.

With `CC[C@H](C)[C@H](NC(=O)[C@H](CCC(=O)O)NC(=O)[C@H](CCCCN)NC(=O)[C@H](C)NC(=O)[C@H](C)NC(=O)[C@H](CCC(N)=O)NC(=O)CNC(=O)[C@H](CCC(=O)O)NC(=O)[C@H](CC(C)C)NC(=O)[C@H](Cc1ccc(O)cc1)NC(=O)[C@H](CCC(N)=O)NC(=O)[C@H](CO)NC(=O)[C@@H](NC(=O)[C@H](CC(=O)O)NC(=O)[C@H](CCCCNC(C)=O)NC(=O)[C@@H](NC(=O)[C@H](Cc1ccccc1)NC(=O)[C@@H](NC(=O)CNC(=O)[C@H](CCC(=O)O)NC(=O)[C@H](C)NC(=O)[C@@H](N)Cc1cnc[nH]1)[C@@H](C)O)[C@@H](C)O)C(C)C)C(=O)N[C@@H](Cc1ccccc1)C(=O)N[C@@H](C)C(=O)N[C@@H](Cc1c[nH]c2ccccc12)C(=O)N[C@@H](CC(C)C)C(=O)N[C@H](C(=O)N[C@@H](CCCCN)C(=O)NCC(=O)N[C@@H](CCCN=C(N)N)C(N)=O)C(C)C` (H-HAEGTFTK(Ac)DVSQYLEGQAAKEIFAWLVKGR-NH2), the pEC50 in assay [1] was 7.80. The molecule further gave a pIC50 in assay [2] of 6.64. `CC[C@H](C)[C@H](NC(=O)[C@H](CCC(=O)O)NC(=O)[C@H](CCCCN)NC(=O)[C@H](C)NC(=O)[C@H](C)NC(=O)[C@H](CCC(N)=O)NC(=O)CNC(=O)[C@H](CCC(=O)O)NC(=O)[C@H](CC(C)C)NC(=O)[C@H](Cc1ccc(O)cc1)NC(=O)[C@H](CO)NC(=O)[C@H](CO)NC(=O)[C@@H](NC(=O)[C@H](CC(=O)O)NC(=O)[C@H](CO)NC(=O)[C@@H](NC(=O)[C@H](Cc1ccccc1)NC(=O)[C@@H](NC(=O)CNC(=O)[C@H](CCC(=O)O)NC(=O)[C@H](C)NC(=O)[C@@H](N)Cc1cnc[nH]1)[C@@H](C)O)[C@@H](C)O)C(C)C)C(=O)N[C@@H](Cc1ccccc1)C(=O)N[C@@H](CCCCNC(C)=O)C(=O)N[C@@H](Cc1c[nH]c2ccccc12)C(=O)N[C@@H](CC(C)C)C(=O)N[C@H](C(=O)N[C@@H](CCC(N)=O)C(=O)NCC(=O)N[C@@H](CCCN=C(N)N)C(N)=O)C(C)C` (H-HAEGTFTSDVSSYLEGQAAKEIFK(Ac)WLVQGR-NH2): in assay [1] (hek293), the pEC50 is 11.32.

For the molecule `CC[C@H](C)[C@H](NC(=O)[C@H](Cc1ccccc1)NC(=O)[C@H](CCC(=O)O)NC(=O)[C@H](CCCCN)NC(=O)[C@H](C)NC(=O)[C@H](C)NC(=O)[C@H](CCC(N)=O)NC(=O)CNC(=O)[C@H](CCC(=O)O)NC(=O)[C@H](CC(C)C)NC(=O)[C@H](Cc1ccc(O)cc1)NC(=O)[C@@H]1CCC(=O)NCCCC[C@H](NC(=O)[C@@H](NC(=O)[C@H](Cc2ccccc2)NC(=O)[C@@H](NC(=O)CNC(=O)[C@H](CCC(=O)O)NC(=O)[C@H](C)NC(=O)[C@@H](N)Cc2cnc[nH]2)[C@@H](C)O)[C@@H](C)O)C(=O)N[C@@H](CC(=O)O)C(=O)N[C@@H](C(C)C)C(=O)N[C@@H](CO)C(=O)N1)C(=O)N[C@@H](C)C(=O)N[C@@H](Cc1c[nH]c2ccccc12)C(=O)N[C@@H](CC(C)C)C(=O)N[C@H](C(=O)N[C@@H](CCCCN)C(=O)NCC(=O)N[C@@H](CCCNC(=N)N)C(N)=O)C(C)C` (H-HAEGTFTKDVSEYLEGQAAKEFIAWLVKGR-NH2; lactam 8-12), in assay [1] (hek293), the pEC50 was 8.08. Further, the pIC50 in assay [2] (hek293) is 6.68. Consider `CC[C@H](C)[C@H](NC(=O)[C@H](CCC(=O)O)NC(=O)[C@H](CCCCN)NC(=O)[C@H](C)NC(=O)[C@H](C)NC(=O)[C@H](CCC(N)=O)NC(=O)CNC(=O)[C@H](CCC(=O)O)NC(=O)[C@H](CCC(N)=O)NC(=O)[C@H](Cc1ccc(O)cc1)NC(=O)[C@H](CO)NC(=O)[C@H](CO)NC(=O)[C@H](CCCCNC(C)=O)NC(=O)[C@H](CC(=O)O)NC(=O)[C@H](CO)NC(=O)[C@@H](NC(=O)[C@H](Cc1ccccc1)NC(=O)[C@@H](NC(=O)CNC(=O)[C@H](CCC(=O)O)NC(=O)[C@H](C)NC(=O)[C@@H](N)Cc1cnc[nH]1)[C@@H](C)O)[C@@H](C)O)C(=O)N[C@@H](Cc1ccccc1)C(=O)N[C@@H](C)C(=O)N[C@@H](Cc1c[nH]c2ccccc12)C(=O)N[C@@H](CC(C)C)C(=O)N[C@H](C(=O)N[C@@H](CCCCN)C(=O)NCC(=O)N[C@@H](CCCN=C(N)N)C(N)=O)C(C)C`, for which, in assay [1], the pEC50 was 10.92. The molecule further gave a pIC50 in assay [2] of 8.18. Consider `CC[C@H](C)[C@H](NC(=O)[C@H](Cc1ccccc1)NC(=O)[C@H](CCC(=O)O)NC(=O)[C@H](CCCCN)NC(=O)[C@H](C)NC(=O)[C@H](C)NC(=O)[C@H](CCC(N)=O)NC(=O)CNC(=O)[C@H](CCC(=O)O)NC(=O)[C@H](CC(C)C)NC(=O)[C@H](Cc1ccc(O)cc1)NC(=O)[C@H](CO)NC(=O)[C@H](CO)NC(=O)[C@@H](NC(=O)[C@@H]1CCC(=O)NCCCC[C@H](NC(=O)CNC(=O)[C@H](CCC(=O)O)NC(=O)[C@H](C)NC(=O)[C@@H](N)Cc2cnc[nH]2)C(=O)N[C@@H](Cc2ccccc2)C(=O)N[C@@H]([C@@H](C)O)C(=O)N[C@@H](CO)C(=O)N1)C(C)C)C(=O)N[C@@H](C)C(=O)N[C@@H](Cc1c[nH]c2ccccc12)C(=O)N[C@@H](CC(C)C)C(=O)N[C@H](C(=O)N[C@@H](CCCCN)C(=O)NCC(=O)N[C@@H](CCCNC(=N)N)C(N)=O)C(C)C` (H-HAEGKFTSEVSSYLEGQAAKEFIAWLVKGR-NH2; lactam 5-9), for which the pEC50 in assay [1] (hek293) was 9.42. Moreover, the pIC50 in assay [2] (hek293) was 6.96. As to `CC[C@H](C)[C@H](NC(=O)[C@H](CCC(=O)O)NC(=O)[C@H](CCCCN)NC(=O)[C@H](C)NC(=O)[C@H](CCC(N)=O)NC(=O)[C@H](CCC(N)=O)NC(=O)CNC(=O)[C@H](CCC(=O)O)NC(=O)[C@H](CCCCNC(C)=O)NC(=O)[C@H](Cc1ccc(O)cc1)NC(=O)[C@H](CO)NC(=O)[C@H](CO)NC(=O)[C@@H](NC(=O)[C@H](CC(=O)O)NC(=O)[C@H](CO)NC(=O)[C@@H](NC(=O)[C@H](Cc1ccccc1)NC(=O)[C@@H](NC(=O)CNC(=O)[C@H](CCC(=O)O)NC(=O)[C@H](C)NC(=O)[C@@H](N)Cc1cnc[nH]1)[C@@H](C)O)[C@@H](C)O)C(C)C)C(=O)N[C@@H](Cc1ccccc1)C(=O)N[C@@H](C)C(=O)N[C@@H](Cc1c[nH]c2ccccc12)C(=O)N[C@@H](CC(C)C)C(=O)N[C@H](C(=O)N[C@@H](CCCCN)C(=O)NCC(=O)N[C@@H](CCCNC(=N)N)C(N)=O)C(C)C` (H-HAEGTFTSDVSSYK(Ac)EGQQAKEIFAWLVKGR-NH2), the pEC50 in assay [1] was 10.00. In addition, the negative logarithm of the IC50 (pIC50) in assay [2] is 5.92. Regarding `CC[C@H](C)[C@H](NC(=O)[C@H](Cc1ccccc1)NC(=O)[C@H](CCC(=O)O)NC(=O)[C@H](CCCCN)NC(=O)[C@H](C)NC(=O)[C@H](C)NC(=O)[C@H](CCC(N)=O)NC(=O)CNC(=O)[C@H](CCC(=O)O)NC(=O)[C@@H]1CCC(=O)NCCCC[C@H](NC(=O)[C@H](CC(=O)O)NC(=O)[C@H](CO)NC(=O)[C@@H](NC(=O)[C@H](Cc2ccccc2)NC(=O)[C@@H](NC(=O)CNC(=O)[C@H](CCC(=O)O)NC(=O)[C@H](C)NC(=O)[C@@H](N)Cc2cnc[nH]2)[C@@H](C)O)[C@@H](C)O)C(=O)N[C@@H](CO)C(=O)N[C@@H](CO)C(=O)N[C@@H](Cc2ccc(O)cc2)C(=O)N1)C(=O)N[C@H]1CCCCNC(=O)CC[C@@H](C(=O)NCC(=O)N[C@@H](CCCNC(=N)N)C(N)=O)NC(=O)[C@H](C(C)C)NC(=O)[C@H](CC(C)C)NC(=O)[C@H](Cc2c[nH]c3ccccc23)NC1=O` (H-HAEGTFTSDKSSYEEGQAAKEFIKWLVEGR-NH2; lactam 10-14, 24-28), the pEC50 in assay [1] was 11.48. On to `CC[C@H](C)[C@H](NC(=O)[C@H](Cc1ccccc1)NC(=O)[C@H](CCC(=O)O)NC(=O)[C@H](CCCCN)NC(=O)[C@H](C)NC(=O)[C@H](C)NC(=O)[C@H](CCC(N)=O)NC(=O)CNC(=O)[C@H](CCC(=O)O)NC(=O)[C@@H]1CSSC[C@H](NC(=O)[C@H](CC(=O)O)NC(=O)[C@H](CO)NC(=O)[C@@H](NC(=O)[C@H](Cc2ccccc2)NC(=O)[C@@H](NC(=O)CNC(=O)[C@H](CCC(=O)O)NC(=O)[C@H](C)NC(=O)[C@@H](N)Cc2cnc[nH]2)[C@@H](C)O)[C@@H](C)O)C(=O)N[C@@H](CO)C(=O)N[C@@H](CO)C(=O)N[C@@H](Cc2ccc(O)cc2)C(=O)N1)C(=O)N[C@@H](C)C(=O)N[C@@H](Cc1c[nH]c2ccccc12)C(=O)N[C@@H](CC(C)C)C(=O)N[C@H](C(=O)N[C@@H](CCCCN)C(=O)NCC(=O)N[C@@H](CCCNC(=N)N)C(N)=O)C(C)C` (H-HAEGTFTSDCSSYCEGQAAKEFIAWLVKGR-NH2; disulfide 10-14), for which the pEC50 in assay [1] (hek293) was 7.72.
